Type in all cases: in vivo
In one data set the test system is Rice plants. In words: Paddy herbicidal activity test, phytotoxicity to transplanted rice. As to conditions: rice transplanted in 2.0 leaf stage, 30 days. On the procedure:
(§1) 1. Paddy Herbicidal Activity Test
(§2) Rice paddy soil was filled into a 1/10000 are pot followed by the addition of suitable amounts of water and chemical fertilizer, kneading, seeding with Echinochloa crus-galli, Monochoria vaginalis and Scirpus juncoides and maintaining in an irrigated state at a water depth of 3 cm.
(§3) Wettable powder of Target Compound (I) shown in Table 1 prepared in compliance with the preparation examples were diluted with a suitable amount of water, rice plants in the 2.0 leaf stage were transplanted during 3.5 leaf stage of Echinochloa crus-galli, and treated by dropping in chemical in the prescribed amount per are using a pipette.
(§4) After treating for 30 days in a glass greenhouse at an average atmospheric temperature of 30° C., the herbicidal efficacy thereof was investigated.
(§5) Evaluation of herbicidal efficacy was carried out by comparing growth inhibition rate (%) with an untreated group, while evaluation of phytotoxicity was carried out by comparing growth inhibition rate (%) with the state of a complete eradication group, and were evaluated at 11 levels indicated below.

The next data set deals with Echinochloa crus-galli. Put plainly: Paddy herbicidal activity test. As to conditions: irrigated paddy pot, treated at 3.5 leaf stage of Echinochloa crus-galli, 30 days. On the procedure: as §1, §2, §3, §4, §5
Another data set has as its system Monochoria vaginalis. In words: Paddy herbicidal activity test. As to conditions: irrigated paddy pot, 30 days. On the procedure:
as §1, §2, §3, §4, §5

In a further data set the test system is Scirpus juncoides. In words: Paddy herbicidal activity test. As to conditions: irrigated paddy pot, 30 days. On the procedure:
as §1, §2, §3, §4, §5

The results in this text go back to patent US9518061B2, “Substituted pyrazolylpyrazole derivative and use of same as herbicide” (KYOYU AGRI CO., LTD., priority 2013, dated 2016).

Each structure is given as a SMILES string.

Consider `N#Cc1cnn(-c2nn3c(c2Cl)CCCC3)c1N(CCCCl)C(=O)C(F)(F)F` [Compound 3], for which the “phytotoxicity (growth inhibition rate level) Rice plants” value in the data set with Rice plants (1g a.i./10a) and with Rice plants (5g a.i./10a) was 1 (10% to less than 20%) each time. In addition, the results for the “herbicidal efficacy (growth inhibition rate level) Echinochloa crus-galli” value with Echinochloa crus-galli (1g a.i./10a) and with Echinochloa crus-galli (5g a.i./10a) were 8 (80% to less than 90%) and 9 (90% to less than 100%), respectively. Besides, the results for the “herbicidal efficacy (growth inhibition rate level) Monochoria vaginalis” value in the data set on Monochoria vaginalis (1g a.i./10a) and in the data set on Monochoria vaginalis (5g a.i./10a) were 7 (70% to less than 80%) and 8 (80% to less than 90%), respectively. In addition, the “herbicidal efficacy (growth inhibition rate level) Scirpus juncoides” value in the data set with Scirpus juncoides (1g a.i./10a) and in the data set on Scirpus juncoides (5g a.i./10a) was 8 (80% to less than 90%) in each case.

As for `N#Cc1cnn(-c2nn3c(c2Cl)CCCC3)c1N(CCC(F)(F)F)C(=O)C(F)(F)F` [Compound 4], the “phytotoxicity (growth inhibition rate level) Rice plants” value in the data set with Rice plants (1g a.i./10a) and in the data set on Rice plants (5g a.i./10a) was 0 (0 (exponent): 0% to less than 10% (growth inhibition rate)) each time. Besides, the “herbicidal efficacy (growth inhibition rate level) Echinochloa crus-galli” value is listed as 9 (90% to less than 100%) in the data set with Echinochloa crus-galli (1g a.i./10a) and 10 (100%) in the data set with Echinochloa crus-galli (5g a.i./10a). Besides, the “herbicidal efficacy (growth inhibition rate level) Monochoria vaginalis” value in the data set with Monochoria vaginalis (1g a.i./10a) and in the data set on Monochoria vaginalis (5g a.i./10a) was 8 (80% to less than 90%) throughout. Also, the “herbicidal efficacy (growth inhibition rate level) Scirpus juncoides” value with Scirpus juncoides (1g a.i./10a) and in the data set on Scirpus juncoides (5g a.i./10a) was 9 (90% to less than 100%) in each case.

As for `CCOCCN(C(=O)C(F)(F)F)c1c(C#N)cnn1-c1nn2c(c1Cl)CCCC2` [Compound 5], the figures for the “phytotoxicity (growth inhibition rate level) Rice plants” value with Rice plants (1g a.i./10a) and in the data set with Rice plants (5g a.i./10a) were 0 (0 (exponent): 0% to less than 10% (growth inhibition rate)) and 1 (10% to less than 20%), respectively. Moreover, the “herbicidal efficacy (growth inhibition rate level) Echinochloa crus-galli” value in the data set on Echinochloa crus-galli (1g a.i./10a) and in the data set on Echinochloa crus-galli (5g a.i./10a) was 9 (90% to less than 100%) in each case. The “herbicidal efficacy (growth inhibition rate level) Monochoria vaginalis” value in the data set on Monochoria vaginalis (1g a.i./10a) and in the data set on Monochoria vaginalis (5g a.i./10a) was 8 (80% to less than 90%) each time. The “herbicidal efficacy (growth inhibition rate level) Scirpus juncoides” value with Scirpus juncoides (1g a.i./10a) is given as 8 (80% to less than 90%); in the data set with Scirpus juncoides (5g a.i./10a), 9 (90% to less than 100%).

For the compound `COCCCN(C(=O)C(F)(F)F)c1c(C#N)cnn1-c1nn2c(c1Cl)CCCC2` [Compound 6], the “phytotoxicity (growth inhibition rate level) Rice plants” value in the data set with Rice plants (1g a.i./10a) and in the data set with Rice plants (5g a.i./10a) was 0 (0 (exponent): 0% to less than 10% (growth inhibition rate)) in each case. The “herbicidal efficacy (growth inhibition rate level) Echinochloa crus-galli” value is listed as 9 (90% to less than 100%) in the data set with Echinochloa crus-galli (1g a.i./10a) and 10 (100%) in the data set with Echinochloa crus-galli (5g a.i./10a). Besides, the results for the “herbicidal efficacy (growth inhibition rate level) Monochoria vaginalis” value with Monochoria vaginalis (1g a.i./10a) and in the data set on Monochoria vaginalis (5g a.i./10a) were 8 (80% to less than 90%) and 9 (90% to less than 100%), respectively. The figures for the “herbicidal efficacy (growth inhibition rate level) Scirpus juncoides” value with Scirpus juncoides (1g a.i./10a) and in the data set on Scirpus juncoides (5g a.i./10a) were 7 (70% to less than 80%) and 8 (80% to less than 90%), respectively.

As for `N#Cc1cnn(-c2nn3c(c2Cl)CCCC3)c1N(CCC(F)(F)F)C(=O)C(F)(F)C(F)(F)F` [Compound 7], the “phytotoxicity (growth inhibition rate level) Rice plants” value with Rice plants (1g a.i./10a) and in the data set on Rice plants (5g a.i./10a) was 0 (0 (exponent): 0% to less than 10% (growth inhibition rate)) each time. The “herbicidal efficacy (growth inhibition rate level) Echinochloa crus-galli” value with Echinochloa crus-galli (1g a.i./10a) and with Echinochloa crus-galli (5g a.i./10a) was 9 (90% to less than 100%) in each case. In addition, the “herbicidal efficacy (growth inhibition rate level) Monochoria vaginalis” value in the data set with Monochoria vaginalis (1g a.i./10a) is 7 (70% to less than 80%); with Monochoria vaginalis (5g a.i./10a), 9 (90% to less than 100%). Moreover, the “herbicidal efficacy (growth inhibition rate level) Scirpus juncoides” value in the data set on Scirpus juncoides (1g a.i./10a) and with Scirpus juncoides (5g a.i./10a) was 8 (80% to less than 90%) throughout.

As for `N#Cc1cnn(-c2nn3c(c2Cl)CCCC3)c1N(CC(F)(F)F)C(=O)C(F)(F)F` [Compound 8], the “phytotoxicity (growth inhibition rate level) Rice plants” value in the data set with Rice plants (1g a.i./10a) and with Rice plants (5g a.i./10a) was 0 (0 (exponent): 0% to less than 10% (growth inhibition rate)) each time. Also, the figures for the “herbicidal efficacy (growth inhibition rate level) Echinochloa crus-galli” value in the data set on Echinochloa crus-galli (1g a.i./10a) and in the data set with Echinochloa crus-galli (5g a.i./10a) were 8 (80% to less than 90%) and 9 (90% to less than 100%), respectively. Moreover, the “herbicidal efficacy (growth inhibition rate level) Monochoria vaginalis” value in the data set with Monochoria vaginalis (1g a.i./10a) and in the data set with Monochoria vaginalis (5g a.i./10a) was 9 (90% to less than 100%) throughout. In addition, the “herbicidal efficacy (growth inhibition rate level) Scirpus juncoides” value in the data set with Scirpus juncoides (1g a.i./10a) was 9 (90% to less than 100%); in the data set on Scirpus juncoides (5g a.i./10a) it was 10 (100%).

As for `COCCN(C(=O)C(F)(F)F)c1c(C#N)cnn1-c1nn2c(c1Br)CCCC2` [Compound 13], the “phytotoxicity (growth inhibition rate level) Rice plants” value is on record as 0 (0 (exponent): 0% to less than 10% (growth inhibition rate)) in the data set on Rice plants (1g a.i./10a) and 1 (10% to less than 20%) with Rice plants (5g a.i./10a). In addition, the “herbicidal efficacy (growth inhibition rate level) Echinochloa crus-galli” value with Echinochloa crus-galli (1g a.i./10a) and with Echinochloa crus-galli (5g a.i./10a) was 9 (90% to less than 100%) in each case. For the same compound, the “herbicidal efficacy (growth inhibition rate level) Monochoria vaginalis” value is listed as 8 (80% to less than 90%) in the data set on Monochoria vaginalis (1g a.i./10a) and 9 (90% to less than 100%) in the data set on Monochoria vaginalis (5g a.i./10a). For the same compound, the “herbicidal efficacy (growth inhibition rate level) Scirpus juncoides” value with Scirpus juncoides (1g a.i./10a) is recorded as 7 (70% to less than 80%); in the data set with Scirpus juncoides (5g a.i./10a) it was 8 (80% to less than 90%).

Consider `CCOCCN(C(=O)C(F)(F)F)c1c(C#N)cnn1-c1nn2c(c1Br)CCCC2` [Compound 14], for which the “phytotoxicity (growth inhibition rate level) Rice plants” value with Rice plants (1g a.i./10a) and with Rice plants (5g a.i./10a) was 1 (10% to less than 20%) throughout. In addition, the “herbicidal efficacy (growth inhibition rate level) Echinochloa crus-galli” value in the data set on Echinochloa crus-galli (1g a.i./10a) and in the data set on Echinochloa crus-galli (5g a.i./10a) was 9 (90% to less than 100%) each time. For the same compound, the “herbicidal efficacy (growth inhibition rate level) Monochoria vaginalis” value is 7 (70% to less than 80%) in the data set on Monochoria vaginalis (1g a.i./10a) and 8 (80% to less than 90%) with Monochoria vaginalis (5g a.i./10a). Further, the entries for the “herbicidal efficacy (growth inhibition rate level) Scirpus juncoides” value in the data set with Scirpus juncoides (1g a.i./10a) and in the data set with Scirpus juncoides (5g a.i./10a) were 8 (80% to less than 90%) and 9 (90% to less than 100%), respectively.

As for `COCCCN(C(=O)C(F)(F)F)c1c(C#N)cnn1-c1nn2c(c1Br)CCCC2` [Compound 15], the “phytotoxicity (growth inhibition rate level) Rice plants” value with Rice plants (1g a.i./10a) was 0 (0 (exponent): 0% to less than 10% (growth inhibition rate)); in the data set on Rice plants (5g a.i./10a), 1 (10% to less than 20%). Also, the “herbicidal efficacy (growth inhibition rate level) Echinochloa crus-galli” value in the data set with Echinochloa crus-galli (1g a.i./10a) is 9 (90% to less than 100%); in the data set with Echinochloa crus-galli (5g a.i./10a), 10 (100%). Also, the “herbicidal efficacy (growth inhibition rate level) Monochoria vaginalis” value in the data set on Monochoria vaginalis (1g a.i./10a) and in the data set with Monochoria vaginalis (5g a.i./10a) was 8 (80% to less than 90%) each time. Besides, the “herbicidal efficacy (growth inhibition rate level) Scirpus juncoides” value is on record as 8 (80% to less than 90%) with Scirpus juncoides (1g a.i./10a) and 9 (90% to less than 100%) in the data set with Scirpus juncoides (5g a.i./10a).

On to `N#Cc1cnn(-c2nn3c(c2Br)CCCC3)c1N(CCCCl)C(=O)C(F)(F)F` [Compound 17], for which the “phytotoxicity (growth inhibition rate level) Rice plants” value with Rice plants (1g a.i./10a) and with Rice plants (5g a.i./10a) was 0 (0 (exponent): 0% to less than 10% (growth inhibition rate)) throughout. The “herbicidal efficacy (growth inhibition rate level) Echinochloa crus-galli” value in the data set on Echinochloa crus-galli (1g a.i./10a) and with Echinochloa crus-galli (5g a.i./10a) was 8 (80% to less than 90%) in each case. Further, the “herbicidal efficacy (growth inhibition rate level) Monochoria vaginalis” value in the data set on Monochoria vaginalis (1g a.i./10a) and in the data set on Monochoria vaginalis (5g a.i./10a) was 9 (90% to less than 100%) in each case. The “herbicidal efficacy (growth inhibition rate level) Scirpus juncoides” value is reported as 7 (70% to less than 80%) with Scirpus juncoides (1g a.i./10a) and 8 (80% to less than 90%) in the data set with Scirpus juncoides (5g a.i./10a).

For `N#Cc1cnn(-c2nn3c(c2Br)CCCC3)c1N(CCC(F)(F)F)C(=O)C(F)(F)F` [Compound 18], the “phytotoxicity (growth inhibition rate level) Rice plants” value with Rice plants (1g a.i./10a) is reported as 0 (0 (exponent): 0% to less than 10% (growth inhibition rate)); in the data set with Rice plants (5g a.i./10a), 1 (10% to less than 20%). In addition, the “herbicidal efficacy (growth inhibition rate level) Echinochloa crus-galli” value in the data set on Echinochloa crus-galli (1g a.i./10a) was 9 (90% to less than 100%); in the data set with Echinochloa crus-galli (5g a.i./10a), 10 (100%). The “herbicidal efficacy (growth inhibition rate level) Monochoria vaginalis” value in the data set on Monochoria vaginalis (1g a.i./10a) is recorded as 7 (70% to less than 80%); in the data set with Monochoria vaginalis (5g a.i./10a), 8 (80% to less than 90%). Also, the “herbicidal efficacy (growth inhibition rate level) Scirpus juncoides” value with Scirpus juncoides (1g a.i./10a) and in the data set with Scirpus juncoides (5g a.i./10a) was 9 (90% to less than 100%) each time.
